# Laboratory results from PubChem BioAssay AID330 (DTP/NCI, 2004).
# “And” between values parts separate entries of the source, which are not always exact repeats. Equal entries are not always repeated. Toxic doses and inconclusive results are not listed.
# Test system: P388 leukemia ip, CD2F1 mice, survival T/C
# Assay: NCI In Vivo Anticancer Drug Screen. Data for tumor model P388 Leukemia (intraperitoneal) in CD2F1 (CDF1) mice
# Conditions: endpoint: median survival time, higher = longer survival
# Procedure, shortened: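 Mice carrying the transplanted tumor received test compound or vehicle. Survival was recorded in each group, and the value is the treated-group measurement divided by that of the vehicle-treated control group.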
# [1] = dose: 50.0 mg/kg/injection, schedule: Q01DX005 (ip), vehicle: saline with Tween-80
# [2] = dose: 100.0 mg/kg/injection, schedule: Q01DX005 (ip), vehicle: saline with Tween-80
# [3] = dose: 200.0 mg/kg/injection, schedule: Q01DX005 (ip), vehicle: saline with Tween-80
# [4] = dose: 50.0 mg/kg/injection, schedule: Q01DX009 (ip), vehicle: saline with Tween-80
# [5] = dose: 100.0 mg/kg/injection, schedule: Q01DX009 (ip), vehicle: saline with Tween-80
# [6] = dose: 200.0 mg/kg/injection, schedule: Q01DX009 (ip), vehicle: saline with Tween-80
# [7] = dose: 60.0 mg/kg/injection, schedule: Q01DX005 (ip), vehicle: saline with Tween-80
# [8] = dose: 120.0 mg/kg/injection, schedule: Q01DX005 (ip), vehicle: saline with Tween-80
structure (smiles),measurement,setting,value
O=C1c2ccccc2C(=O)C1(Br)C(Br)c1ccccc1 (stereo unspecified),T/C,"dose: 100.0 mg/kg/injection, schedule: Q01DX009 (ip), vehicle: Klucel (hydroxypropylcellulose) (HPC)",104 % of control
same,T/C,"dose: 100.0 mg/kg/injection, schedule: Q04DX003 (ip), vehicle: Klucel (hydroxypropylcellulose) (HPC)",104 % of control
same,T/C,"dose: 200.0 mg/kg/injection, schedule: Q04DX003 (ip), vehicle: Klucel (hydroxypropylcellulose) (HPC)",95 % of control
same,T/C,"dose: 400.0 mg/kg/injection, schedule: Q04DX003 (ip), vehicle: Klucel (hydroxypropylcellulose) (HPC)",90 % of control
CC1(C)S(=O)(=O)OCCOS1(=O)=O,T/C,"dose: 3.75 mg/kg/injection, schedule: Q01DX005 (ip), vehicle: Klucel (hydroxypropylcellulose) (HPC)",107 % of control
same,T/C,"dose: 7.5 mg/kg/injection, schedule: Q01DX005 (ip), vehicle: Klucel (hydroxypropylcellulose) (HPC)",107 % of control and 111 % of control and 115 % of control
same,T/C,"dose: 15.0 mg/kg/injection, schedule: Q01DX005 (ip), vehicle: Klucel (hydroxypropylcellulose) (HPC)",119 % of control
Clc1nc2nc(Cl)c(Cl)n2c(Cl)c1Cl,T/C,"dose: 100.0 mg/kg/injection, schedule: Q04DX002 (ip), vehicle: saline with Tween-80",105 % of control
same,T/C,"dose: 200.0 mg/kg/injection, schedule: Q04DX002 (ip), vehicle: saline with Tween-80",117 % of control
O=C(NC(Cc1ccccc1)C(=O)NC(Cc1c[nH]c2ccccc12)C(=O)O)OCc1ccccc1 (stereo unspecified),T/C,[1],90 % of control
same,T/C,[2],98 % of control
same,T/C,[3],91 % of control
O=C(CBr)CC(O)(C(F)(F)F)C(F)(F)F,T/C,"dose: 3.0 mg/kg/injection, schedule: Q04DX003 (ip), vehicle: saline",100 % of control
same,T/C,"dose: 6.0 mg/kg/injection, schedule: Q04DX003 (ip), vehicle: saline",100 % of control
same,T/C,"dose: 12.0 mg/kg/injection, schedule: Q04DX003 (ip), vehicle: saline",91 % of control
O=c1oc2c(ccc3c(O)cccc32)c2c1CCCC2,T/C,"dose: 50.0 mg/kg/injection, schedule: Q01DX005 (ip), vehicle: Klucel (hydroxypropylcellulose) (HPC)",105 % of control
same,T/C,"dose: 100.0 mg/kg/injection, schedule: Q01DX005 (ip), vehicle: Klucel (hydroxypropylcellulose) (HPC)",102 % of control
same,T/C,"dose: 200.0 mg/kg/injection, schedule: Q01DX005 (ip), vehicle: Klucel (hydroxypropylcellulose) (HPC)",93 % of control
C/C(=N\OCC(O)CNCCSCc1ccccc1)c1ccccc1Cl (stereo unspecified),T/C,"dose: 30.0 mg/kg/injection, schedule: Q01DX005 (ip), vehicle: Klucel (hydroxypropylcellulose) (HPC)",97 % of control
same,T/C,"dose: 60.0 mg/kg/injection, schedule: Q01DX005 (ip), vehicle: Klucel (hydroxypropylcellulose) (HPC)",91 % of control
same,T/C,"dose: 120.0 mg/kg/injection, schedule: Q01DX005 (ip), vehicle: Klucel (hydroxypropylcellulose) (HPC)",100 % of control and 91 % of control
CCN(CC)c1ccc2c(cc1=O)[C@@H](NC(C)=O)CCc1cc(OC)c(OC)c(OC)c1-2,T/C,"dose: 0.39 mg/kg/injection, schedule: Q01DX009 (ip), vehicle: Klucel (hydroxypropylcellulose) (HPC)",103 % of control and 107 % of control and 120 % of control
same,T/C,"dose: 3.13 mg/kg/injection, schedule: Q01DX009 (ip), vehicle: Klucel (hydroxypropylcellulose) (HPC)",181 % of control
O=[N+]([O-])c1ccc(N2CCN(c3ccccc3)CC2)c2c1no[n+]2[O-],T/C,"dose: 37.5 mg/kg/injection, schedule: Q04DX003 (ip), vehicle: saline",105 % of control
same,T/C,"dose: 37.5 mg/kg/injection, schedule: Q04DX003 (ip), vehicle: suspension in saline",104 % of control
same,T/C,"dose: 75.0 mg/kg/injection, schedule: Q04DX003 (ip), vehicle: saline",100 % of control
same,T/C,"dose: 75.0 mg/kg/injection, schedule: Q04DX003 (ip), vehicle: suspension in saline",100 % of control
same,T/C,"dose: 150.0 mg/kg/injection, schedule: Q04DX003 (ip), vehicle: saline",97 % of control
same,T/C,"dose: 150.0 mg/kg/injection, schedule: Q04DX003 (ip), vehicle: suspension in saline",111 % of control
same,T/C,"dose: 300.0 mg/kg/injection, schedule: Q04DX003 (ip), vehicle: saline",101 % of control
same,T/C,"dose: 300.0 mg/kg/injection, schedule: Q04DX003 (ip), vehicle: suspension in saline",104 % of control
O=CC1(c2ccco2)SCCCS1,T/C,[4],106 % of control
same,T/C,[5],104 % of control
same,T/C,[6],104 % of control
CC1(OC(=O)c2ccccc2)CC2(CCCCC2)N=N1 (stereo unspecified),T/C,"dose: 12.5 mg/kg/injection, schedule: Q01DX009 (ip), vehicle: saline with Tween-80",113 % of control
same,T/C,"dose: 25.0 mg/kg/injection, schedule: Q01DX009 (ip), vehicle: saline with Tween-80",105 % of control
same,T/C,[4],112 % of control
same,T/C,[5],107 % of control
same,T/C,[6],105 % of control
CC(CC(C)C)=NC(C)CC(C)C (stereo unspecified),T/C,"dose: 50.0 mg/kg/injection, schedule: Q01DX005 (ip), vehicle: saline",97 % of control
same,T/C,"dose: 100.0 mg/kg/injection, schedule: Q01DX005 (ip), vehicle: saline",95 % of control
CN(C)CCOc1cccc2c1CCC2,T/C,[7],107 % of control
same,T/C,[8],87 % of control
O=C(N=Nc1ccccc1)Nc1ccc(Br)cc1,T/C,[1],101 % of control
same,T/C,[2],101 % of control
same,T/C,[3],104 % of control
CCC12C=CCN3CC[C@@]4(c5cc([C@@]6(C(=O)OC)C[C@@H]7CN(CCc8c6[nH]c6ccccc86)C[C@](O)(CC)C7)c(OC)cc5N(C)[C@H]4[C@@](O)(C(=O)NCCCCCCCCCCCC(=O)O)[C@@H]1O)C32 (stereo partly specified),T/C,"dose: 11.25 mg/kg/injection, schedule: Q01DX001 (ip), vehicle: other",164 % of control
same,T/C,"dose: 11.25 mg/kg/injection, schedule: Q01DX001 (ip), vehicle: saline with Tween-80",153 % of control
same,T/C,"dose: 11.25 mg/kg/injection, schedule: Q01DX001 (ip), vehicle: saline",189 % of control
same,T/C,"dose: 22.5 mg/kg/injection, schedule: Q01DX001 (ip), vehicle: saline with Tween-80",164 % of control
same,T/C,"dose: 45.0 mg/kg/injection, schedule: Q01DX001 (ip), vehicle: saline with Tween-80",182 % of control
COc1cc(C2c3cc4c(c(OC)c3C(O)C3CC(=O)OC23)OCO4)cc(OC)c1OC (stereo unspecified),T/C,[7],115 % of control
same,T/C,[8],116 % of control
CCOC(=O)CSc1cc(O)c2ccccc2c1N=Nc1ccc(C(=O)O)cc1,T/C,"dose: 12.5 mg/kg/injection, schedule: Q01DX005 (ip), vehicle: saline with Tween-80",94 % of control
same,T/C,"dose: 25.0 mg/kg/injection, schedule: Q01DX005 (ip), vehicle: saline with Tween-80",88 % of control
same,T/C,[1],88 % of control
same,T/C,[2],86 % of control
same,T/C,[3],93 % of control
CS(C)=O.CS(C)=O.[Cl][Rh]([Cl])([Cl])[Cl],T/C,"dose: 12.5 mg/kg/injection, schedule: Q04DX003 (ip), vehicle: saline",100 % of control
same,T/C,"dose: 25.0 mg/kg/injection, schedule: Q04DX003 (ip), vehicle: saline",109 % of control
same,T/C,"dose: 50.0 mg/kg/injection, schedule: Q04DX003 (ip), vehicle: saline",118 % of control
